Results reported in US20070105874A1, “Anti-Tumor Methods Using Multi Drug Resistance Independent Synthetic HSP90 Inhibitors” (Conforma Therapeutics Corporation, priority 2005, published 2007).

What was measured:
[1] = test system: P-gp over-expressing MES SA Dx5 and NCI/ADR-Res cells; test: MTS cytotoxicity assay in P-gp over-expressing versus non-expressing cell lines; format: cell-based
Method: The cell lines were plated in 96-well plate at 10-20% confluence and treated with increasing concentrations of indicated drug from 1 nM to 10 mM. 5 days later, the surviving fraction was estimated by MTS assay.
(§1) MTS assays measure the cytotoxicity of the compounds. […] Cells were seeded in 96 well plates at 2000 cells/well and allowed to adhere overnight in Dulbecco's modified Eagle's medium supplemented with 10% fetal bovine serum. The final culture volume was 100 μl. Viable cell number was determined by using the Celltiter 96 AQueous Non-radioactive Cell Proliferation Assay (Promega, Madison Wis.). The MTS/PMS (phenazine methosulfate) solution was mixed at a ratio of 20:1, and 20 μL was added per well to 100 μl of culture medium. After 2-4 hours, the formation of the formazan product was measured at 490 nm absorbance using a multiwell plate spectrophotometer. Background was determined by measuring the Abs 490 nm of cell culture medium and MTS-PMS in the absence of cells and was subtracted from all values. Percent viable cells was calculated as follows: % viable cells=(Abs at 490 nm treated cells/Abs at 490 nm untreated cells)×100

[2] = test system: H295R adrenal cortical carcinoma cells; test: MTS cytotoxicity assay in H295R adrenal cortical carcinoma cells; conditions: 5 days
Method: H295R cells were plated in 96-well plate at low confluence and were analyzed for IC50 as described in FIG. 2 with indicated compounds.
as §1

P-gp = molecular target: T1, P-gp (Homo sapiens, UniProt P08183); test: Rhodamine 123 retention (P-gp efflux inhibition) in H295R cells; format: cell-based; conditions: rhodamine 123, concentrations up to 10 mM
T1 construct: adrenocortical carcinoma, a tumor that naturally expresses P-gp; endogenous in cells; host or cells: H295R adrenal cortical carcinoma cells
Method: Rhodamine 123 level within cells was measured by flow cytometry as described in FIG. 9.

Compound | increase of IC50 in P-gp+++ lines ([1]; P-gp+++ lines) | P-gp substrate status ([1]; cytotoxicity in cell lines expressing P-gp or MRP to various extent) | cytotoxic potency in adrenal cortical carcinoma [2] | inhibitory effect on P-gp efflux activity (P-gp)
COc1c(C)cnc(Cn2cc(C#CCCC(N)=O)c3c(Cl)nc(N)nc32)c1C [Compound XI, 5-(2-amino-4-chloro-7-((4-methoxy-3,5-dimethylpyridin-2-yl)methyl)-7H-pyrrolo[2,3-d]pyrimidin-5-yl)pent-4-ynamide] | 10-20 fold |  |  | 
CO[C@H]1/C=C\C=C(/C)C(=O)NC2=CC(=O)C(NCCN(C)C)=C(C[C@@H](C)C[C@H](OC)[C@H](O)[C@@H](C)/C=C(\C)[C@@H]1OC(N)=O)C2=O [Compound 17-DMAG, (4E,6Z,8S,9S,10E,12S,13R,14S,16R)-19-(2-(dimethylamino)ethylamino)-13-hydroxy-8,14-dimethoxy-4,10,12,16-tetramethyl-3,20,22-trioxo-2-azabicyclo[16.3.1]docosa-1(21),4,6,10,18-pentaen-9-yl carbamate] |  | P-gp substrates | weak | 
C=CCNC1=C2CC(C)CC(OC)C(O)C(C)/C=C(\C)C(OC(N)=O)C(OC)/C=C\C=C(/C)C(=O)NC(=CC1=O)C2=O (centres unmarked) [Compound 17-AAG, (4E,6Z,10E)-19-(allylamino)-13-hydroxy-8,14-dimethoxy-4,10,12,16-tetramethyl-3,20,22-trioxo-2-azabicyclo[16.3.1]docosa-1(21),4,6,10,18-pentaen-9-yl carbamate] |  |  | more potent than CsA | No inhibitory effect
